Values quoted from earlier work as cited in paper PMC9516332 (Frontiers in Oncology, 2022).
Where two headings read alike, the source gives them in different places.

How the values were obtained:
Conditions in all cases: cited from earlier work
[1] = target: T1, panel of 255 wild-type kinases (Homo sapiens, UniProt Q05513)
T1 sequence (Q05513 1-592): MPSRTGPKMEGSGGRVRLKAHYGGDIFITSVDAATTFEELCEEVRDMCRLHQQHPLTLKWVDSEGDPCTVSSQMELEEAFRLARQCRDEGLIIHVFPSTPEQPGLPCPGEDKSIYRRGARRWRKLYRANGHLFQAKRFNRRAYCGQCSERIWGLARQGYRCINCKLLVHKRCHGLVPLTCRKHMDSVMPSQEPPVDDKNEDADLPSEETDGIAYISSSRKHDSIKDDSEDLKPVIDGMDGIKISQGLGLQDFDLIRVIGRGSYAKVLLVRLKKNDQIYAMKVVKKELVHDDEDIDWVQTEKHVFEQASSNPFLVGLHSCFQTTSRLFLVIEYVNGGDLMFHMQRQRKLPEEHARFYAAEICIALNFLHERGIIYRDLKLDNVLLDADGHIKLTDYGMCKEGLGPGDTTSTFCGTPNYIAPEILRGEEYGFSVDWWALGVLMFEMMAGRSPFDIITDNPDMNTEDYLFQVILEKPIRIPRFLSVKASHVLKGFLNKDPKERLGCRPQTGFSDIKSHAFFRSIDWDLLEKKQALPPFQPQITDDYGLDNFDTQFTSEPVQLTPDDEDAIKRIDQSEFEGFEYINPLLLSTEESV

[2] = target: T2, panel of 255 wild-type kinases (Homo sapiens, UniProt Q9UQB9)
T2 sequence (Q9UQB9 1-309): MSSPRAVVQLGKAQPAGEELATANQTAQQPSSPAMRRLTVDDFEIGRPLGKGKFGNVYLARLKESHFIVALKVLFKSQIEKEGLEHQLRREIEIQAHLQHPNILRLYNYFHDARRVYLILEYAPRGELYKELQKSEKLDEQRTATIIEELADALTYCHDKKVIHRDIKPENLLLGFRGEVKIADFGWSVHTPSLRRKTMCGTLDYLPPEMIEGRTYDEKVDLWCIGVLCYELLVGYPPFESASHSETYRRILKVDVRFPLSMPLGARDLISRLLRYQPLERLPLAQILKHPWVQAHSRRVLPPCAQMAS

[3] = target: panel of 255 wild-type kinases (Homo sapiens, UniProt Q13882)
[4] = target: T3, panel of 255 wild-type kinases (Homo sapiens, UniProt Q8IWQ3)
T3 sequence (Q8IWQ3 1-736): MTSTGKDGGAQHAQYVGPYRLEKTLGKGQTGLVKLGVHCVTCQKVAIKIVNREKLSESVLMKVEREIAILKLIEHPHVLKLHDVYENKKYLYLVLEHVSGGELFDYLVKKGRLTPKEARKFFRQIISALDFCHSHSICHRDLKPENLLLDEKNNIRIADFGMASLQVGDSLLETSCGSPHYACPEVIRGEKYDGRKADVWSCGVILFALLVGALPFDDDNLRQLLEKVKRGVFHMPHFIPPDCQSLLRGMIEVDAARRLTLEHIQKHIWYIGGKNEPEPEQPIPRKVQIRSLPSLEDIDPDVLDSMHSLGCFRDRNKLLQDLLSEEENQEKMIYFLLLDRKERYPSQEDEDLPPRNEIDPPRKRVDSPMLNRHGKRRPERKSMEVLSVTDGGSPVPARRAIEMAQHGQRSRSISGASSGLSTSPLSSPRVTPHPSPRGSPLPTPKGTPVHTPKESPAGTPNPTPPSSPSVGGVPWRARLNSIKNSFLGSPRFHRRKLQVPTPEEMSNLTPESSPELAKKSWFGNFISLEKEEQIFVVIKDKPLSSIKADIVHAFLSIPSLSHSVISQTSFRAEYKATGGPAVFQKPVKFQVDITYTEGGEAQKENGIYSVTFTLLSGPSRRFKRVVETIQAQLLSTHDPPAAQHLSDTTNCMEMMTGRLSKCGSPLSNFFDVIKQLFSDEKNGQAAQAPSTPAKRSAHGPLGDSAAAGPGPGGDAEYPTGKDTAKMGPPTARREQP

[5] = target: T4, panel of 255 wild-type kinases (Homo sapiens, UniProt Q13470)
T4 sequence (Q13470 1-666): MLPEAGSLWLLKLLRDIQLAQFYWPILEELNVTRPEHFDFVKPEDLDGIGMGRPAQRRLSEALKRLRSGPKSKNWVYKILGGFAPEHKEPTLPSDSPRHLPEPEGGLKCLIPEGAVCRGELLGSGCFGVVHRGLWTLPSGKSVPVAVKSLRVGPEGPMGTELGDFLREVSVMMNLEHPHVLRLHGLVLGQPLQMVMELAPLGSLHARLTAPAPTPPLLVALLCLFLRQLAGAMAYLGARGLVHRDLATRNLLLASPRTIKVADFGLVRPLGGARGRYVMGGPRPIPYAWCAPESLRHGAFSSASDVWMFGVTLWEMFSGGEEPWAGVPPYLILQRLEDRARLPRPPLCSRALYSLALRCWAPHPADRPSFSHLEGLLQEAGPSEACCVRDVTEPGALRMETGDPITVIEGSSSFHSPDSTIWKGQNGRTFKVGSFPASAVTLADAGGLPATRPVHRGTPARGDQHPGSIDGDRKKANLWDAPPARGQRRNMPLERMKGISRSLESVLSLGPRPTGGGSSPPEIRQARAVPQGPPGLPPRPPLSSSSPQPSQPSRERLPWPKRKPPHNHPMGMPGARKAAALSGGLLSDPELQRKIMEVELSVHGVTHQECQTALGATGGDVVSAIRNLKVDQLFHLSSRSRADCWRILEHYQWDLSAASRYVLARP

[6] = target: panel of 255 wild-type kinases (Homo sapiens, UniProt P51957)
[7] = target: panel of 255 wild-type kinases (Homo sapiens, UniProt Q16816)
[8] = kinase PKCζ, 1 µmol/L single concentration, ref DOI: 10.1158/1535-7163.MCT-18-0877
[9] = AurC kinase assay, 1 µmol/L single concentration, ref DOI: 10.1158/1535-7163.MCT-18-0877
[10] = BRK kinase assay, 1 µmol/L single concentration, ref DOI: 10.1158/1535-7163.MCT-18-0877
[11] = BRSK2 kinase assay, 1 µmol/L single concentration, ref DOI: 10.1158/1535-7163.MCT-18-0877
[12] = kinase TNK1, 1 µmol/L single concentration, ref DOI: 10.1158/1535-7163.MCT-18-0877
[13] = NEK4, 1 µmol/L single concentration, ref DOI: 10.1158/1535-7163.MCT-18-0877
[14] = kinase PHKG1, 1 µmol/L single concentration, ref DOI: 10.1158/1535-7163.MCT-18-0877
[15] = kinase PKCζ, 1 µmol/L single concentration, ref DOI: 10.1371/journal.pone.0092146
[16] = AurC kinase assay, 1 µmol/L single concentration, ref DOI: 10.1371/journal.pone.0092146
[17] = BRK kinase assay, 1 µmol/L single concentration, ref DOI: 10.1371/journal.pone.0092146
[18] = BRSK2 kinase assay, 1 µmol/L single concentration, ref DOI: 10.1371/journal.pone.0092146
[19] = kinase TNK1, 1 µmol/L single concentration, ref DOI: 10.1371/journal.pone.0092146
[20] = NEK4, 1 µmol/L single concentration, ref DOI: 10.1371/journal.pone.0092146
[21] = kinase PHKG1, 1 µmol/L single concentration, ref DOI: 10.1371/journal.pone.0092146

Compound	%-inhibition at 1 µmol/L, PKCζ [1, 8] [%]	%-inhibition AurC [2, 9] [%]	%-inhibition BRK [3, 10] [%]	%-inhibition BRSK2 [4, 11] [%]	%-inhibition at 1 µmol/L, TNK1 [5, 12] [%]	%-inhibition, NEK4 [6, 13] [%]	%-inhibition at 1 µmol/L, PHKG1 [7, 14] [%]	other results
CC#CC(=O)N1CCC[C@H]1c1nc(-c2ccc(C(=O)Nc3ccccn3)cc2)c2c(N)nccn12 [acalabrutinib]	-5.44	7	51	-10	-1.8	-4.76	-4	
CCc1cc2c(cc1N1CCC(N3CCOCC3)CC1)C(C)(C)c1[nH]c3cc(C#N)ccc3c1C2=O [alectinib]	10	2.65	9	-2.35	11	-1.16	78	
COc1cc(N2CCC(N3CCN(C)CC3)CC2)ccc1Nc1ncc(Cl)c(Nc2ccccc2P(C)(C)=O)n1 [brigatinib]								%-inhibition at 1 µmol/L, PKCζ [1]: 5%; %-inhibition AurC [2]: 44%; %-inhibition BRK [3]: 103%; %-inhibition BRSK2 [4]: 77%; %-inhibition at 1 µmol/L, TNK1 [5]: 101%; %-inhibition, NEK4 [6]: 25%; %-inhibition at 1 µmol/L, PHKG1 [7]: 96%
Cc1cc(Nc2ncc(Cl)c(Nc3ccccc3S(=O)(=O)C(C)C)n2)c(OC(C)C)cc1C1CCNCC1 [ceritinib]	14	3.47	98	24	101	-3.48	91	
O=C(c1ccc(F)c(F)c1Nc1ccc(I)cc1F)N1CC(O)([C@@H]2CCCCN2)C1 [cobimetinib]	9	-2.68	-1	3	4.29	5	3	
C[C@@H](Oc1cc(-c2cnn(C3CCNCC3)c2)cnc1N)c1c(Cl)ccc(F)c1Cl [crizotinib]								%-inhibition at 1 µmol/L, PKCζ [1, 15]: 9%; %-inhibition AurC [2, 16]: 87%; %-inhibition BRK [3, 17]: 15%; %-inhibition BRSK2 [4, 18]: 8%; %-inhibition at 1 µmol/L, TNK1 [5, 19]: 41%; %-inhibition, NEK4 [6, 20]: 4.57%; %-inhibition at 1 µmol/L, PHKG1 [7, 21]: 2.74%
CC(C)(C)c1nc(-c2cccc(NS(=O)(=O)c3c(F)cccc3F)c2F)c(-c2ccnc(N)n2)s1 [dabrafenib]								%-inhibition at 1 µmol/L, PKCζ [1, 15]: 5%; %-inhibition AurC [2, 16]: 23%; %-inhibition BRK [3, 17]: 98%; %-inhibition BRSK2 [4, 18]: 30%; %-inhibition at 1 µmol/L, TNK1 [5, 19]: 100%; %-inhibition, NEK4 [6, 20]: 4%; %-inhibition at 1 µmol/L, PHKG1 [7, 21]: -0.59%
C=CC(=O)N1CCC[C@@H](n2nc(-c3ccc(Oc4ccccc4)cc3)c3c(N)ncnc32)C1 [ibrutinib]	10	7		16	6	4.65	1.53	%-inhibition BRK [3]: 103%
CO[C@@H]1[C@H](N(C)C(=O)c2ccccc2)C[C@H]2O[C@]1(C)n1c3ccccc3c3c4c(c5c6ccccc6n2c5c31)C(=O)NC4 [midostaurin]	-3.41	100	11	90	101	26	97	
C=CC(=O)Nc1cc(Nc2nccc(-c3cn(C)c4ccccc34)n2)c(OC)cc1N(C)CCN(C)C [osimertinib]	9.52	2.33	101	-0.439	100	6	38	
